Assay [1] deals with human. The experiment in a line: Sensory evaluation of salty taste enhancing activity of compound of the present invention in human. The class given is in vivo. To be noted: n=5; for salty taste enhancing rate (fold) middle and after taste: after 2 seconds; for salty taste enhancing rate (fold) initial taste: first 2 seconds. The method, then:
The intensity of a salty taste enhancing activity and the strength of a bitter taste were examined by a quantitative sensory evaluation test for the compound of the present invention (compounds of Examples 11 and 51).
The quantitative sensory evaluation test was performed as follows. Distilled water containing sodium chloride (0.8 g/dl) was mixed with capsazepine as a sample at 0.001 g/dl, or the compound of Example 11 or Example 51 at 0.0001 to 0.001 g/dl, and the level of a salty taste enhancing activity was measured. Distilled water containing 0.8 g/dl of sodium chloride was used as a control, and distilled water containing 0.9 g/dl or 1.0 g/dl of sodium chloride was used as a comparison target. Using a linear measurement method, a straight line showing 1.0-fold (0.8 g/dl), 1.13-fold (0.9 g/dl), 1.25-fold (1.0 g/dl) positions of sodium chloride concentration was drawn and the position showing the strength of the corresponding salty taste was put down thereon. As for the strength of a bitter taste, using the bitter taste of a solution obtained by mixing distilled water containing sodium chloride (0.8 g/dl) with capsazepine at 0.0001 to 0.001 g/dl as the standard, the strength of the bitter taste of the solution obtained by mixing the compound of Example 11 or Example 51 at 0.0001 to 0.001 g/dl was relatively evaluated by comparison. The points were marked based on 0 point for no bitter taste, and 5.0 points for the strength of the bitter taste of a solution containing 0.001 g/dl capsazepine. The test was performed at n=5. […] The “initial taste” means the evaluation of the strength of the salty taste for 2 seconds after placing in the mouth, and the “middle and after taste” means a combination of middle taste and after taste, which is the evaluation of the strength of the salty taste after 2 seconds from placing in the mouth.

Assay [2] deals with human. In words: Sensory evaluation of salty taste enhancing activity of capsazepine in human. It is filed as in vivo. To be noted: for strength of salty taste middle and after taste: after 2 seconds; for strength of salty taste middle and after taste / strength of salty taste initial taste: relative to control; for strength of salty taste initial taste: first 2 seconds. The method, then: The presence or absence of a salty taste enhancing activity in human was examined by a quantitative sensory evaluation test for capsazepine having an ENaC activation to action.
The quantitative sensory evaluation test was performed as follows. Distilled water containing sodium chloride (0.8 g/dl) was mixed with capsazepine as a sample at 0.0001 to 0.001 g/dl, and the level of a salty taste enhancing activity was measured. Distilled water containing 0.8 g/dl of sodium chloride was used as a control, and distilled water containing 0.9 g/dl or 1.0 g/dl of sodium chloride was used as a comparison target. Using a linear measurement method, a straight line showing 1.0-fold (0.8 g/dl), 1.13-fold (0.9 g/dl), 1.25-fold (1.0 g/dl) positions of sodium chloride concentration was drawn and the position showing the strength of the corresponding salty taste was put down thereon. As for the sensory evaluation, an average of the positions put down by the panelists was determined, and an increase in the level of salty taste relative to the level of salty taste in the control was indicated as a salty taste enhancing rate (fold). […] The “initial taste” means the evaluation of the strength of the salty taste for 2 seconds after placing in the mouth, and the “middle and after taste” means a combination of middle taste and after taste, which is the evaluation of the strength of the salty taste after 2 seconds from placing in the mouth.

Setting [3] is: sample 0.0001 g/dl in 0.8 g/dl sodium chloride.
The mark [4] stands for this setting: sample 0.0005 g/dl in 0.8 g/dl sodium chloride.
The mark [5] stands for this setting: sample 0.001 g/dl in 0.8 g/dl sodium chloride.

Structures are written as SMILES.

In the case of `C[C@@H](NC(=S)NCCc1ccccc1)c1ccccc1` [Example 11], the “salty taste enhancing rate (fold) middle and after taste” value stood at 1.10 fold in the assay with human [1] (setting [3]), 1.14 fold with human [1] (setting [4]) and 1.14 fold in the assay on human [1] (setting [5]). Also, the entries for the “salty taste enhancing rate (fold) initial taste” value in the assay on human [1] (setting [3]), in the assay with human [1] (setting [4]) and in the assay with human [1] (setting [5]) were 1.10 fold, 1.15 fold and 1.13 fold, respectively.
In the case of `OC[C@@H](NC(=S)NCCc1ccccc1)c1ccccc1` [Example 51], the “salty taste enhancing rate (fold) middle and after taste” value is listed as 1.11 fold in the assay on human [1] (setting [3]), 1.17 fold with human [1] (setting [4]) and 1.17 fold in the assay on human [1] (setting [5]). Moreover, the “salty taste enhancing rate (fold) initial taste” value with human [1] (setting [3]) is 1.09 fold; with human [1] (setting [4]), 1.13 fold; with human [1] (setting [5]), 1.17 fold.
As to `Oc1cc2c(cc1O)CN(C(=S)NCCc1ccc(Cl)cc1)CCC2` [capsazepine], in the assay on human [1] (setting [3]), the “salty taste enhancing rate (fold) middle and after taste” value was 1.11 fold; the “salty taste enhancing rate (fold) initial taste” value is given as 1.11 fold. Besides, in the assay with human [2] (setting [3]), the “strength of salty taste middle and after taste” value (“strength … after taste” for short) turned out to be 1.05 fold; the “strength of salty taste initial taste” value is on record as 1.04 fold. Also, in the assay with human [2] (setting [4]), the “strength … after taste” value was 1.08 fold; the “strength of salty taste initial taste” value stood at 1.11 fold. For the same compound, in the assay on human [2] (setting [5]), the “strength … after taste” value is recorded as 1.11 fold; the “strength of salty taste initial taste” value was 1.11 fold. For the same compound, in the assay on human [2] (summary in words of Table 3), the “salty taste enhancing activity in human” value is given as “has a salty taste enhancing activity in human”.

Source of the values: patent US20140004243A1, “SALTY TASTE ENHANCER” (AJINOMOTO CO., INC., priority 2011, published 2014).
